Test results published in patent US10787640B2, “Producing mesodermal cell types and methods of using the same” (The Board of Trustees of the Leland Stanford Junior …, priority 2015, dated 2020).

Assays:
Assay type in all cases: cell-based, human
[1] = test system: day 5 hematopoietic intermediates; assay: Day 5-7 continued differentiation of hematopoietic intermediates, factor withholding; conditions: for GFI1B expression: individually withholding the factor from the 8 factors, 48 hours
Procedure: SOX17^mCherry/+ H9 hESCs (referred to as SOX17-mCherry hESCs throughout this study) were routinely propagated in mTeSR1 (StemCell Technologies)+1% penicillin/streptomycin. They were passaged ˜1:12-1:25 as fine clumps using Accutase (Gibco) onto plates precoated with a Geltrex substratum (Gibco) in mTeSR1 medium supplemented with thiazovivin ([…]; a ROCK inhibitor). After overnight plating, hESCs were washed (DMEM/F12) and differentiated towards posterior PS using BMP4 (15-40 ng/mL, R&D Systems), CHIR99021 ([…]), FGF2 (20 ng/mL, Invitrogen) and PIK90 (100 nM, Calbiochem) for 24 hours, with the optional inclusion of Activin (30 ng/mL, R&D Systems) to induce mid PS. Day 1 mid or posterior PS was subsequently washed (DMEM/F12) and further differentiated using BMP4 (40 ng/mL), GDC-0941 (0.25-2.5 μM, Cellagen Technology), Forskolin (10 μM, Tocris), SB-505124 ([…]), VEGF (100 ng/mL, R&D Systems), XAV939 (1 μM, Tocris) and ascorbic acid-2-phosphate (200 μg/mL, Sigma) for 24 hours. Day 2 cultures were further directed into the definitive hematopoietic lineage/hemogenic precursors by Activin A (15 ng/mL), GDC-0941 (0.25-2.5 μM), VEGF (100 ng/mL), XAV939 (1 μM) and ascorbic acid-2-phosphate (200 μg/mL) for 24 hours. Day 3 definitive hematopoietic progenitors were subsequently differentiated into early Runx1^lowGfi1^low hemogenic intermediates through day 4-5 treatment with BMP4 (50 ng/mL), TTNPB (500 nM), VEGF (100 ng/mL) and XAV939 (1 μM) for 48 hours, supplemented with SB-505124 (2 μM) on day 5. Day 5 populations were then dissociated into single cells, counted and reaggregated in individual wells of a low-adhesion V-bottom or U-bottom 96-well plate (e.g., Thermo Fisher, catalog no. 249952) with ˜15,000-20,000 cells seeded per well. Aggregates were cultured for 48 additional hours until day 7 in BMP4 (50 ng/mL), TTNPB (500 nM), VEGF (100 ng/mL), XAV939 (1 μM), SB-505124 (2 μM), SCF (25-50 ng/mL, R&D Systems), IL6 (10 ng/mL, R&D Systems) and IL6RA (250-1000 ng/mL, R&D Systems). All differentiation was conducted in serum-free CDM2 fully-defined basal media.

[2] = test system: hESC-derived cardiac mesoderm; assay: Cardiac mesoderm differentiation into cardiovascular fates, qPCR; conditions: BMP4 30 ng/mL+XAV939 1 μM with FGF2 or FGF receptor antagonists at 100 nM, 48 hours
Procedure: Day 2 lateral mesoderm was differentiated into day 4 cardiac mesoderm by treating them with 1 μM A8301+30 ng/mL BMP4+1 μM C59+20 ng/mL FGF2 for 48 hrs, or alternatively, with 1 μM A8301+30 ng/mL BMP4+20 ng/mL FGF2 for 24 hrs followed by 25 ng/mL Activin+30 ng/mL BMP4+1 μM C59 for the next 24 hrs (schema in FIG. 5E; positive effect of mid-stage Activin shown in FIG. 12K). Subsequently, day 4 cardiac mesoderm was briefly washed (DMEM/F12) and treated with 30 ng/mL BMP4+1 μM XAV939+200 μg/mL 2-phospho-ascorbic acid (Sigma) for 48-96 hrs to yield day 6-8 cardiomyocyte-containing populations. Spontaneously contracting cardiomyocyte foci were evident from day 8 onwards.
C) To reveal the possible identity of non-cardiac mesoderm lineages that were contaminating cardiac mesoderm-containing cultures, NKX2.5-GFP hESCs were differentiated towards mid primitive streak (day 1) and were differentiated towards a heterogeneous population containing cardiac mesoderm (day 3) by treatment with SB-505124+BMP4+C59 (without FGF2) on days 2-3 of differentiation. FACS was performed on day 3 to purify either NKX2.5-GFP^+ or NKX2.5-GFP^− cells (top subpanels) which were sorted for qPCR (bottom subpanels). Gene expression was normalized to expression of a gene in the NKX2.5-GFP^+ fraction (dotted line). D) Timecourse of gene expression in hESCs differentiating towards mid primitive streak and lateral mesoderm, with treatment by SB-505124+BMP4+C59 on days 2-3 of differentiation. […] G) To assess whether a stabilized vitamin C analog (ascorbic acid-2-phosphate) (AA2P) enhanced cardiac mesoderm differentiation into cardiomyocytes, day 4 hESC-derived cardiac mesoderm was exposed to BMP4 (30 ng/mL)+XAV939 (1 μM) for 48 hours in the presence or absence of 200 μg/mL AA2P and qPCR was conducted of day 6 populations; qPCR data were normalized such that expression values in the highest-expressing sample was normalized=1.0. […] J) In the mouse embryo, endocardium (progenitors to heart-affiliated endothelium) are marked by transient coexpression of pan-heart marker Nkx2.5 together with endothelial markers (Ferdous et al., 2009; Stanley et al., 2002).

[3] = test system: day 3 early somite progenitors; assay: Patterning of early somite progenitors into sclerotome or dermomyotome
Procedure: Day 2 paraxial mesoderm was briefly washed (DMEM/F12) and further differentiated into day 3 early somite/somitomere precursors for 24 hours (1 μM A-83-01+250 nM LDN-193189+1 μM C59+500 nM PD0325901). Subsequently, day 3 early somites were dorsoventrally patterned into either ventral somites/sclerotome (5 nM 21K+1 μM C59) or dorsal somites/dermomyotome (3 μM CHIR99021+150 nM Vismodegib). Sclerotome induction was conducted for 48-72 hours (leading to day 5-6 ventral somite progenitors). […] Media was changed 24 hours for all steps. The Hedgehog agonist 21K, which has been previously described in, e.g., Brunton et al., 2009 the disclosure of which is incorporated herein by reference in its entirety, was commercially synthesized.
Day 3 early somites were briefly washed (DMEM/F12), treated with BMP4+CHIR99021+Vismodegib for 24 hours, washed again (DMEM/F12) and subsequently treated with CHIR99021 (3 μM)+21K (5 nM) for 24 hours. This day 5 dermomyotome was further empirically differentiated towards skeletal muscle-like progeny (using medium containing 2% horse serum, which has been previously described in, e.g., Xu et al. 2013, the disclosure of which is incorporated herein by reference in its entirety) for 12 days, yielding day 17 skeletal muscle-containing populations.
FIG. 11: A) To determine the length of time required for sclerotome differentiation, a qPCR timecourse was performed, encompassing undifferentiated hESCs (D0), day 2 hESC-derived paraxial mesoderm (D2 PXM), day 3 hESC-derived early somite progenitors, and hESC-derived day 3 early somite progenitors that were exposed to sclerotome inductive conditions (5 nM 21K+1 μM C59) for 24 or 48 hours. B) Description of EF1α-BCL2-T2A-GFP lentiviral construct (otherwise known as “C306”; top) and FACS plot of a stably-transduced polyclonal H9 hESC line with near-uniform expression of the BCL2-T2A-GFP transgene (green contour) by comparison to uncolored wild-type hESCs (bottom) (see above methods for details of derivation of the H9 BCL2-T2A-GFP hESC line). C) Higher-magnification picture of BCL2-T2A-GFP hESC-derived sclerotome ectopic bone grafts (originally described above in FIG. 4, panel E), showing that despite the near-ubiquitous expression of GFP throughout the ectopic bone graft (indicating its human provenance), the blood vessels are clearly GFP-negative and therefore presumably derived from the mouse host; scale bar=1 mm. […] L) Description of EF1a-BCL2-T2A-GFP lentiviral construct (otherwise known as “C306”; top) and FACS plot of a stably-transduced polyclonal H9 hESC line with near-uniform expression of the BCL2-T2A-GFP transgene (green contour) by comparison to uncolored wild-type hESCs (bottom) (see the methods described herein for details of derivation of the H9 BCL2-T2A-GFP hESC line). M) Description of UBC-Luciferase-T2A-tdTomato lentiviral construct (top); bioluminescent assay of cultured H9 UBC-Luciferase-T2A-tdTomato hESCs validates that these cells are luciferase-expressing in vitro (bottom).

**Q.** With VEGF as the molecule, how does the GFI1B expression [1] read?
**A.** The GFI1B expression was “did not markedly impair GFI1B expression”.

**Q.** What about the “vein marker NR2F2 expression” value ([1]; withholding the factor) of the same molecule?
**A.** The value was “increased expression of the vein marker NR2F2”.

**Q.** How did the cardiovascular fate promoted [2] turn out when `CCN(CC)CCCCNc1ncc2cc(-c3cc(OC)cc(OC)c3)c(NC(=O)NC(C)(C)C)nc2n1` [PD173074, N-[2-[[4-(Diethylamino)butyl]amino]-6-(3,5-dimethoxyphenyl)pyrido[2,3-d]pyrimidin-7-yl]-N′-(1,1-dimethylethyl)urea] was run?
**A.** The cardiovascular fate promoted was “promoted (pro)epicardium”.

**Q.** Which sclerotome fate induction ([3]; 21K with C59, 2-3 days) does the source give for `CN[C@H]1CC[C@H](N(Cc2ccc(OC)c(-c3ccncc3)c2)C(=O)c2sc3c(F)ccc(F)c3c2Cl)CC1` [21K, 3-chloro-4,7-difluoro-N-(4-methoxy-3-(pyridin-4-yl)benzyl)-N-((1r,4r)-4-(methylamino)cyclohexyl)benzo[b]thiophene-2-carboxamide] here?
**A.** Its sclerotome fate induction is “efficiently induced the sclerotome fate”.

**Q.** And the EN1 induction ([3]; later stage CHIR99021+21K 5 nM, 24-48 hours)?
**A.** The EN1 induction was “important to induce EN1”.

**Q.** With `CCN1CCN(c2ccc(Nc3cc(N(C)C(=O)Nc4c(Cl)c(OC)cc(OC)c4Cl)ncn3)cc2)CC1` [BGJ398] as the molecule, how does the cardiovascular fate promoted [2] read?
**A.** Its cardiovascular fate promoted is “promoted (pro)epicardium”.

**Q.** For `CS(=O)(=O)c1ccc(C(=O)Nc2ccc(Cl)c(-c3ccccn3)c2)c(Cl)c1` [Vismodegib], which “dorsal somite marker PAX3 and sclerotome fate” value ([3]; CHIR together with Vismodegib) is on record?
**A.** Its value is “sustained dorsal somite marker PAX3 while inhibiting the sclerotome fate”.

**Q.** For FGF2: FGF agonist, FGF family ligand, which cardiovascular fate promoted [2] is on record?
**A.** Its cardiovascular fate promoted is “promoted endocardium”.

**Q.** For “SCF: SCF protein signaling through the KIT receptor”, which GFI1B expression [1] is on record?
**A.** Its GFI1B expression is “strongly diminished”.

**Q.** Which GFI1B expression [1] does the source give for IL6: IL6 ligand here?
**A.** The GFI1B expression was “strongly diminished”.

**Q.** AZD4547 was tested. Which cardiovascular fate promoted [2] did it give?
**A.** Its cardiovascular fate promoted is “promoted (pro)epicardium”.

B1: IL6RA: soluble IL6 receptor ectodomain (protein)
chain: LAPRRCPAQEVARGVLTSLPGDSVTLTCPGVEPEDNATVHWVLRKPAAGSHPSRWAGMGRRLLLRSVQLHDSGNYSCYRAGRPAGTVHLLVDVPPEEPQLSCFRKSPLSNVVCEWGPRSTPSLTTKAVLLVRKFQNSPAEDFQEPCQYSQESQKFSCQLAVPEGDSSFYIVSMCVASSVGSKFSKTQTFQGCGILQPDPPANITVTAVARNPRWLSVTWQDPHSWNSSFYRLRFELRYRAERSKTFTTWMVKDLQHHCVIHDAWSGLRHVVQLRAQEEFGQGEWSEWSPEAMGTPWTESRSPPAENEVSTPMQALTTNKDDDNILFRDSANATSLPVQDSSSVPLP
**Q.** B1 was tested. Which GFI1B expression [1] did it give?
**A.** The GFI1B expression was “strongly diminished”.
